This is an account of results in ChEMBL document CHEMBL4823276, “Comparative studies on the substrate specificity and defucosylation activity of three α-l-fucosidases using synthetic fucosylated glycopeptides and glycoproteins as substrates” (Bioorg Med Chem, 2021).

Holding throughout (type): ADME
Series [1] in a line: Substrate activity at recombinant His-tagged Lactobacillus casei alpha L-fucosidase expressed in Escherichia coli […] assessed as formation of p-nitrophenyl products at 5 mM measured by UV spectrometer assay. Particulars: lacticaseibacillus casei, 5000 µM; call rule not given here.
The nature of series [2]: Substrate activity at recombinant His-tagged Bacteroides fragilis alpha L-fucosidase expressed in Escherichia coli BL21(DE3) assessed as formation of p-nitrophenyl products at 5 mM measured by UV spectrometer assay. Particulars: 5000 µM.
A short description of series [3]: Substrate activity at recombinant His-tagged Bacteroides fragilis alpha L-fucosidase expressed in Escherichia coli BL21(DE3) assessed as de-fucosylation of N-glycan at 5 mg/ml measured after 21 hrs by LC/MS analysis.
Series [4] is described as follows: Substrate activity at recombinant His-tagged Lactobacillus casei alpha L-fucosidase expressed in Escherichia coli […] assessed as de-fucosylation of N-glycan at 5 mg/ml measured after 21 hrs by LC/MS analysis. To be noted: lacticaseibacillus casei.

`C[C@@H]1O[C@@H](Oc2ccc([N+](=O)[O-])cc2)[C@@H](O)[C@H](O)[C@@H]1O`: the Activity entry in series [1] is reported as “Not Active”; in series [2], “Active”.

Regarding `CC(=O)N[C@@H]1[C@@H](O)[C@H](O[C@@H]2O[C@H](CO)[C@@H](O[C@@H]3O[C@H](CO[C@H]4O[C@H](CO)[C@@H](O)[C@H](O)[C@@H]4O[C@@H]4O[C@H](CO[C@@H]5O[C@H](CO[C@]6(C(=O)O)C[C@H](O)[C@@H](NC(C)=O)C([C@H](O)[C@H](O)CO)O6)[C@H](O)[C@H](O)[C@H]5O)[C@@H](O)[C@H](O)[C@H]4NC(C)=O)[C@@H](O)[C@H](O[C@H]4O[C@H](CO)[C@@H](O)[C@H](O)[C@@H]4O[C@@H]4O[C@H](CO)[C@@H](O[C@@H]5O[C@H](CO[C@]6(C(=O)O)C[C@H](O)[C@@H](NC(C)=O)C([C@H](O)[C@H](O)CO)O6)[C@H](O)[C@H](O)[C@H]5O)[C@H](O)[C@H]4NC(C)=O)[C@@H]3O)[C@H](O)[C@H]2NC(C)=O)[C@@H](CO[C@H]2O[C@H](C)[C@H](O)[C@H](O)[C@H]2O)O[C@H]1NC(=O)CNC(=O)C[C@H](NC(=O)[C@H](CCC(N)=O)NC(=O)CN)C(=O)N[C@@H](CC(=O)O)C(=O)N[C@H](C(=O)N[C@@H](CO)C(=O)N[C@@H](CCC(N)=O)C(=O)N[C@H](C(=O)N[C@@H](CO)C(=O)N[C@@H](CO)C(=O)N1CCC[C@H]1C(=O)N[C@@H](CO)C(=O)N[C@@H](CC(C)C)C(=O)N1CCC[C@H]1C(=O)N[C@@H](CCCCN)C(=O)N[C@H](C(=O)NCC(=O)NCC(=O)N[C@@H](CO)C(=O)O)[C@@H](C)O)[C@@H](C)O)[C@@H](C)O` (some centres undefined), the Activity entry in series [3] and in series [4] was “Not Active” each time.
